Laboratory results: patent US20260191968A1, “PROTAC DEGRADERS OF MLLT1 AND/OR MLLT3” (DARK BLUE THERAPEUTICS LTD, priority 2024, published 2026)

Key:
MLLT1 = biological target: T1, MLLT1 (Homo sapiens, UniProt Q03111); assay: MLLT1 degradation assay in MV4-11 cells (JESS chemiluminescent detection), three concentrations, 24 h; format: cell-based; conditions: with respect to DMSO control
T1 construct: host or cells: MV4-11
T1 sequence (Q03111 1-559): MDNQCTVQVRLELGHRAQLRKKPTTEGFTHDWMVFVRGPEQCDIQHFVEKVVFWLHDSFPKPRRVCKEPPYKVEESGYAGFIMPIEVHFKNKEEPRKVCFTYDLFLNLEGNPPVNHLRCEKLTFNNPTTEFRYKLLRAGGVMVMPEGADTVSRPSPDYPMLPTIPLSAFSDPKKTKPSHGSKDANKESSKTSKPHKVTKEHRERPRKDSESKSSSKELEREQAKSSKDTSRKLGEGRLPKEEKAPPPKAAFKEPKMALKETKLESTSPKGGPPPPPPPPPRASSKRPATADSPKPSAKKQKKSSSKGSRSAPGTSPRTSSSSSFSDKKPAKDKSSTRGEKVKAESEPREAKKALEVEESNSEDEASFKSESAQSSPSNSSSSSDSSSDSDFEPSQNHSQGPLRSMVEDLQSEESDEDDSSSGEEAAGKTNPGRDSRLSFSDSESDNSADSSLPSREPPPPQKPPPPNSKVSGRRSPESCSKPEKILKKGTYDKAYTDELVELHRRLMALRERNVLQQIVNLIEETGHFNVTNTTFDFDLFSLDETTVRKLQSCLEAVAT
Method in brief: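 Read-out is % MLLT1 degradation versus DMSO, from band peak areas on a JESS chemiluminescent system. Cells (MV4-11) were exposed for 24 h at 37° C to three compound levels, 10, 100 and 1000 nM, in 0.1% DMSO.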

MV4-11 cells = assay: MV4-11 cellular proliferative assay, Assay Format B (CTG 2.0, 168 h); format: cell-based; conditions: Homo sapiens, 168 h (7 days), CTG 2.0, read-out: IC50 (MV4-11 cellular proliferative assay, Assay format B)
Method in brief: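 Viability read by CellTiter-Glo 2.0 luminescence after 7-day (168 h) compound exposure of MV4-11 cells in IMDM/10% FBS. Ten 3-fold concentrations starting at 1 uM or 100 nM, 0.3% final DMSO; curves normalised to DMSO control, four-parameter fit.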

| MLLT1% Degradation @ 0.01 μM (MLLT1) | MLLT1% Degradation @ 0.1 μM (MLLT1) | MLLT1% Degradation @ 1 μM (MLLT1) | IC50 (MV4-11 cells) | Compound |
| --- | --- | --- | --- | --- |
| A (Category A: A ≥ 75% degradation) | A (Category A: A ≥ 75% degradation) | A (Category A: A ≥ 75% degradation) | ≤ 100 nM | CN1CCC[C@@H]1c1cc2cnc(NC(=O)c3ccc(OCCC4CCN(c5cccc6c5CN(C5CCC(=O)NC5=O)C6=O)CC4)cc3F)cc2[nH]1 (stereo in doubt) [Example 172, 4-(2-(1-(2-((rel-S)-2,6-dioxopiperidin-3-yl)-1-oxoisoindolin-4-yl)piperidin-4-yl)ethoxy)-2-fluoro-N-(2-((R)-1-methylpyrrolidin-2-yl)-1H-pyrrolo[3,2-c]pyridin-6-yl)benzamide] |
| A (Category A: A ≥ 75% degradation) | A (Category A: A ≥ 75% degradation) | A (Category A: A ≥ 75% degradation) | ≤ 100 nM | CN1CCC[C@@H]1c1cc2cnc(NC(=O)c3ccc(-c4cnn(CCCC5CCN(c6cccc(C(=O)N[C@H]7CCC(=O)NC7=O)n6)CC5)c4)cc3)cc2[nH]1 [Example 60, N—((S)-2,6-dioxopiperidin-3-yl)-6-(4-(3-(4-(4-((2-((R)-1-methylpyrrolidin-2-yl)-1H-pyrrolo[3,2-c]pyridin-6-yl)carbamoyl)phenyl)-1H-pyrazol-1-yl)propyl)piperidin-1-yl)picolinamide] |
| A (Category A: A ≥ 75% degradation) | A (Category A: A ≥ 75% degradation) | A (Category A: A ≥ 75% degradation) | ≤ 100 nM | CN1CCC[C@@H]1c1cc2cnc(NC(=O)c3ccc(OCC4CCN(c5cccc6c5CN(C5CCC(=O)NC5=O)C6=O)CC4)cc3)cc2[nH]1 (stereo partly drawn) [Example 159, 4-((1-(2-(2,6-dioxopiperidin-3-yl)-1-oxoisoindolin-4-yl)piperidin-4-yl)methoxy)-N-(2-((R)-1-methylpyrrolidin-2-yl)-1H-pyrrolo[3,2-c]pyridin-6-yl)benzamide] |
| A (Category A: A ≥ 75% degradation) | A (Category A: A ≥ 75% degradation) | A (Category A: A ≥ 75% degradation) | ≤ 100 nM | C[C@@H]1CN(CC2CCN(c3cccc4c3CN(C3CCC(=O)NC3=O)C4=O)CC2)CCN1c1ccc(C(=O)Nc2cc3[nH]c([C@H]4CCCN4C)cc3cn2)cc1 (mixture of isomers) [Example 133, 4-((2R)-4-((1-(2-(2,6-dioxopiperidin-3-yl)-1-oxoisoindolin-4-yl)piperidin-4-yl)methyl)-2-methylpiperazin-1-yl)-N-(2-((R)-1-methylpyrrolidin-2-yl)-1H-pyrrolo[3,2-c]pyridin-6-yl)benzamide] |
| A (Category A: A ≥ 75% degradation) | A (Category A: A ≥ 75% degradation) | A (Category A: A ≥ 75% degradation) | ≤ 100 nM | CN1CCC[C@@H]1c1cc2cnc(NC(=O)c3ccc(OCCN4CCC(c5cccc6c5CN(C5CCC(=O)NC5=O)C6=O)CC4)cc3)cc2[nH]1 (stereo partly drawn) [Example 141, 4-(2-(4-(2-(2,6-dioxopiperidin-3-yl)-1-oxoisoindolin-4-yl)piperidin-1-yl)ethoxy)-N-(2-((R)-1-methylpyrrolidin-2-yl)-1H-pyrrolo[3,2-c]pyridin-6-yl)benzamide] |
| A (Category A: A ≥ 75% degradation) | A (Category A: A ≥ 75% degradation) | A (Category A: A ≥ 75% degradation) | ≤ 100 nM | CN1CCC[C@@H]1c1cc2cnc(NC(=O)c3ccc(CCCC#Cc4ccc(F)c5c4CN(C4CCC(=O)NC4=O)C5=O)cc3)cc2[nH]1 (stereo partly drawn) [Example 91, 4-(5-(2-(2,6-dioxopiperidin-3-yl)-7-fluoro-1-oxoisoindolin-4-yl)pent-4-yn-1-yl)-N-(2-((R)-1-methylpyrrolidin-2-yl)-1H-pyrrolo[3,2-c]pyridin-6-yl)benzamide] |
| A (Category A: A ≥ 75% degradation) | A (Category A: A ≥ 75% degradation) | A (Category A: A ≥ 75% degradation) | ≤ 100 nM | CN1CCC[C@@H]1c1cc2cnc(NC(=O)c3ccc(N4CCN(CC5CCN(c6ccc7c(c6)n(C)c(=O)n7C6CCC(=O)NC6=O)CC5)CC4)cc3)cc2[nH]1 (stereo partly drawn) [Example 170, 4-(4-((1-(1-(2,6-dioxopiperidin-3-yl)-3-methyl-2-oxo-2,3-dihydro-1H-benzo[d]imidazol-5-yl)piperidin-4-yl)methyl)piperazin-1-yl)-N-(2-((R)-1-methylpyrrolidin-2-yl)-1H-pyrrolo[3,2-c]pyridin-6-yl)benzamide] |
| A (Category A: A ≥ 75% degradation) | A (Category A: A ≥ 75% degradation) | A (Category A: A ≥ 75% degradation) | ≤ 100 nM | CN1CCC[C@@H]1c1[nH]c2cc(NC(=O)c3ccc(OCCC4CCN(c5cccc6c5CN(C5CCC(=O)NC5=O)C6=O)CC4)cc3)ncc2c1Cl (stereo in doubt) [Example 161, N-(3-chloro-2-((R)-1-methylpyrrolidin-2-yl)-1H-pyrrolo[3,2-c]pyridin-6-yl)-4-(2-(1-(2-((rel-S)-2,6-dioxopiperidin-3-yl)-1-oxoisoindolin-4-yl)piperidin-4-yl)ethoxy)benzamide] |
| A (Category A: A ≥ 75% degradation) | A (Category A: A ≥ 75% degradation) | A (Category A: A ≥ 75% degradation) | ≤ 100 nM | CN1CCC[C@@H]1c1cc2cnc(NC(=O)c3ccc(OCCCC#Cc4cccc5c4CN(C4CCC(=O)NC4=O)C5=O)nc3)cc2[nH]1 (stereo partly drawn) [Example 150, 6-((5-(2-(2,6-dioxopiperidin-3-yl)-1-oxoisoindolin-4-yl)pent-4-yn-1-yl)oxy)-N-(2-((R)-1-methylpyrrolidin-2-yl)-1H-pyrrolo[3,2-c]pyridin-6-yl)nicotinamide] |
| A (Category A: A ≥ 75% degradation) | A (Category A: A ≥ 75% degradation) | A (Category A: A ≥ 75% degradation) | ≤ 100 nM | CN1CCC[C@@H]1c1cc2cnc(NC(=O)c3ccc(N4CCC(CCN5CCN(c6cccc7c6CN(C6CCC(=O)NC6=O)C7=O)CC5)CC4)nc3)cc2[nH]1 (stereo partly drawn) [Example 138, 6-(4-(2-(4-(2-(2,6-dioxopiperidin-3-yl)-1-oxoisoindolin-4-yl)piperazin-1-yl)ethyl)piperidin-1-yl)-N-(2-((R)-1-methylpyrrolidin-2-yl)-1H-pyrrolo[3,2-c]pyridin-6-yl)nicotinamide] |

| Compound | MLLT1% Degradation @ 0.01 μM (MLLT1) | MLLT1% Degradation @ 0.1 μM (MLLT1) | MLLT1% Degradation @ 1 μM (MLLT1) | IC50 (MV4-11 cells) |
| --- | --- | --- | --- | --- |
| CN1CCC[C@@H]1c1cc2cnc(NC(=O)c3cnc(N4CCN(CC#Cc5cccc6c5CN(C5CCC(=O)NC5=O)C6=O)CC4)nc3)cc2[nH]1 (stereo partly drawn) [Example 89, 2-(4-(3-(2-(2,6-dioxopiperidin-3-yl)-1-oxoisoindolin-4-yl)prop-2-yn-1-yl)piperazin-1-yl)-N-(2-((R)-1-methylpyrrolidin-2-yl)-1H-pyrrolo[3,2-c]pyridin-6-yl)pyrimidine-5-carboxamide] | A (Category A: A ≥ 75% degradation) | A (Category A: A ≥ 75% degradation) | C (Category C: 25% ≤ C < 50% degradation) | ≤ 100 nM |
| CN1CCC[C@@H]1c1cc2cnc(NC(=O)c3ccc(N4CCN(CC#Cc5cccc6c5CN(C5CCC(=O)NC5=O)C6=O)CC4)nc3)cc2[nH]1 (stereo partly drawn) [Example 6, 6-(4-(3-(2-(2,6-dioxopiperidin-3-yl)-1-oxoisoindolin-4-yl)prop-2-yn-1-yl)piperazin-1-yl)-N-(2-((R)-1-methylpyrrolidin-2-yl)-1H-pyrrolo[3,2-c]pyridin-6-yl)nicotinamide] | A (Category A: A ≥ 75% degradation) | A (Category A: A ≥ 75% degradation) | B (Category B: 50% ≤ B < 75% degradation) | ≤ 100 nM |
| CN1CCC[C@@H]1c1cc2cnc(NC(=O)c3ccc(N4CCN(CC5CCN(c6cccc7c6CN(C6CCC(=O)NC6=O)C7=O)CC5)CC4)cc3)cc2[nH]1 (mixture of isomers) [Example 116, 4-(4-((1-(2-(2,6-dioxopiperidin-3-yl)-1-oxoisoindolin-4-yl)piperidin-4-yl)methyl)piperazin-1-yl)-N-(2-((R)-1-methylpyrrolidin-2-yl)-1H-pyrrolo[3,2-c]pyridin-6-yl)benzamide] | B (Category B: 50% ≤ B < 75% degradation) | A (Category A: A ≥ 75% degradation) | A (Category A: A ≥ 75% degradation) | ≤ 100 nM |
